In US9670227B2, “Thienopyrimidine derivatives, a process for their preparation and pharmaceutical compositions containing them” (LES LABORATOIRES SERVIER, priority 2013, dated 2017):
Where two headings read alike, the source gives them in different places.

How the values were obtained:
[1] = tested on: AMO-1 multiple myeloma cells; assay: Quantification of the cleaved form of PARP in vivo (MSD ELISA, tumour lysates); parameters: species or system mice (SCID strain); settings: activation factor: cleaved PARP in treated mice / control mice, AMO-1 xenograft in SCID mice, intraveinous or oral routes
Protocol: The ability of the compounds of the invention to induce apoptosis, by measuring cleaved PARP levels, is evaluated in a xenograft model of AMO-1 multiple myeloma cells. 1.10^7 AMO-1 cells are grafted sub-cutaneously into immunosuppressed mice (SCID strain). 12 to 14 days after the graft, the animals are treated by intraveinous or oral routes with the various compounds. After treatment, the tumour masses are recovered and lysed, and the cleaved form of PARP is quantified in the tumour lysates.
The quantification is carried out using the “Meso Scale Discovery (MSD) ELISA platform” test, which specifically assays the cleaved form of PARP. It is expressed in the form of an activation factor corresponding to the ratio between the quantity of cleaved PARP in the treated mice divided by the quantity of cleaved PARP in the control mice.

Mcl-1 protein = Mcl-1 protein (UniProtKB primary accession number: Q07820) (Homo sapiens, UniProt Q07820); assay: Inhibition of Mcl-1 by fluorescence polarisation, Method 1; format: binding; settings: for IC50: read-out: IC50 (M) Mcl-1 FP; for percentage fluorescence polarisation inhibition, Mcl-1 FP: partial inhibitors, @ 10 uM test compound
Outline: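 FP readout of relative binding potency. Mcl-1 5 nM final, fluorescein-labelled ligand 1 nM final; buffer 10 mM HEPES, 150 mM NaCl, 0.05% Tween 20, pH 7.4; 11-pt dilution series, 5% DMSO final.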

[2] = tested on: H929 multiple myeloma tumour line; assay: In vitro cytotoxicity, Microculture Tetrazolium Assay; format: cell-based; settings: Homo sapiens, NCI-H929, 48 h, H929 cells, 48 hours exposure, MTT; read-out: IC50 (μM) MTT H929
Protocol: The cytotoxicity studies were carried out on the H929 multiple myeloma tumour line.
The cells are distributed onto microplates and exposed to the test compounds for 48 hours.

[3] = fluorescence polarisation test, Method 2 values are underlined in the patent (underlining not visible here)
[4] = fluorescence polarisation, Method 1, or Method 2

Sequence of Mcl-1 protein (Q07820 whole entry): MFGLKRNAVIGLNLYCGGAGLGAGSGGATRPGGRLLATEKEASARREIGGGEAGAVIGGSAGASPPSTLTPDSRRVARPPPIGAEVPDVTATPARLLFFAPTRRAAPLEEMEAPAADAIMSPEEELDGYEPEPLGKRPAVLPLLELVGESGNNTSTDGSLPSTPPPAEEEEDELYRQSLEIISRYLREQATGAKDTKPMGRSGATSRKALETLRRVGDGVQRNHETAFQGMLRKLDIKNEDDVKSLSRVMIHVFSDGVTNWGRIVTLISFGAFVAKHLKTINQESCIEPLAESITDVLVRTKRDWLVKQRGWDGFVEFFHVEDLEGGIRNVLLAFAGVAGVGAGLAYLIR

Row | Structure (SMILES) | IC50 (Mcl-1 protein; [3]) | IC50 (Mcl-1 protein; [4]) | IC50 (Mcl-1 protein; fluorescence polarisation test, Method 1, or Method 2 where the value is underlined (underlining not visible)) | percentage fluorescence polarisation inhibition, Mcl-1 FP (Mcl-1 protein) | PARP fold [1] | IC50 [2]
1 | COCc1nccc(COc2ccccc2CC(Oc2ncnc3sc(-c4ccc(F)cc4)c(-c4ccc(OCCN5CCN(C)CC5)c(Cl)c4C)c23)C(=O)O)n1 [Example 45, (2R)-2-{[(5Sa)-5-{3-chloro-2-methyl-4-[2-(4-methylpiperazin-1-yl)ethoxy]phenyl}-6-(4-fluorophenyl)thieno[2,3-d]pyrimidin-4-yl]oxy}-3-(2-{[2-(methoxymethyl)pyrimidin-4-yl]methoxy}phenyl)propanoic acid] | 6.7e-09 M |  |  |  | 194.3 fold | 0.009 µM
2 | CC#Cc1sc2ncnc(OC(Cc3ccccc3OCc3ccnc(OCC(F)(F)F)n3)C(=O)O)c2c1-c1ccc(OCCN2CCN(C)CC2)c(Cl)c1C [Example 487, (2R)-2-{[(5Sa)-5-{3-chloro-2-methyl-4-[2-(4-methylpiperazin-1-yl)ethoxy]phenyl}-6-(prop-1-yn-1-yl)thieno[2,3-d]pyrimidin-4-yl]oxy}-3-(2-{[2-(2,2,2-trifluoroethoxy)pyrimidin-4-yl]methoxy}phenyl)propanoic acid] |  | 6.5e-09 M |  |  | 141.4 fold | 0.004 µM
3 | Cc1c(-c2c(-c3ccco3)sc3ncnc(OC(Cc4ccccc4OCc4ccnc(OCC5CC5)n4)C(=O)O)c23)ccc(OCCN2CCN(C)CC2)c1Cl [Example 256, (2R)-2-{[(5Sa)-5-{3-chloro-2-methyl-4-[2-(4-methylpiperazin-1-yl)ethoxy]phenyl}-6-(furan-2-yl)thieno[2,3-d]pyrimidin-4-yl]oxy}-3-(2-{[2-(cyclopropylmethoxy)pyrimidin-4-yl]methoxy}phenyl)propanoic acid] | 4.8e-09 M |  |  |  | 125.1 fold | 0.006 µM
4 | Cc1cnccc1-c1nccc(COc2ccccc2CC(Oc2ncnc3sc(-c4ccc(F)o4)c(-c4ccc(OCCN5CCN(C)CC5)c(Cl)c4C)c23)C(=O)O)n1 [Example 198, (2R)-2-{[(5Sa)-5-{3-chloro-2-methyl-4-[2-(4-methylpiperazin-1-yl)ethoxy]phenyl}-6-(5-fluorofuran-2-yl)thieno[2,3-d]pyrimidin-4-yl]oxy}-3-(2-{[2-(3-methylpyridin-4-yl)pyrimidin-4-yl]methoxy}phenyl)propanoic acid] | 7.7e-09 M |  |  |  | 280 fold | 0.002 µM
5 | CCOC(=O)[C@@H](Cc1ccccc1OCc1ccnn1C(C)C)Oc1ncnc2sc(-c3ccc(F)o3)c(-c3ccc(OCCN4CCN(C)CC4)c(Cl)c3C)c12 [Example 623, ethyl (2R)-2-{[(5Sa)-5-{3-chloro-2-methyl-4-[2-(4-methylpiperazin-1-yl)ethoxy]phenyl}-6-(5-fluorofuran-2-yl)thieno[2,3-d]pyrimidin-4-yl]oxy}-3-(2-{[1-(propan-2-yl)-1H-pyrazol-5-yl]methoxy}phenyl)propanoate] |  |  |  | 67.8% @ 10 uM | 441.5 fold | 
6 | CC#Cc1sc2ncnc(OC(Cc3ccccc3OCc3ccnc(CCOC)n3)C(=O)O)c2c1-c1ccc(OCCN2CCN(C)CC2)c(Cl)c1C [Example 484, (2R)-2-{[(5Sa)-5-{3-chloro-2-methyl-4-[2-(4-methylpiperazin-1-yl)ethoxy]phenyl}-6-(prop-1-yn-1-yl)thieno[2,3-d]pyrimidin-4-yl]oxy}-3-(2-{[2-(2-methoxyethyl)pyrimidin-4-yl]methoxy}phenyl)propanoic acid] |  | 3.4e-09 M |  |  |  | 0.014 µM
7 | COc1cc(-c2sc3ncnc(OC(Cc4ccccc4OCc4cnccn4)C(=O)O)c3c2-c2ccc(OCCN3CCN(C)CC3)c(Cl)c2C)ccc1F [Example 386, (2R)-2-{[(5Sa)-5-{3-chloro-2-methyl-4-[2-(4-methylpiperazin-1-yl)ethoxy]phenyl}-6-(4-fluoro-3-methoxyphenyl)thieno[2,3-d]pyrimidin-4-yl]oxy}-3-[2-(pyrazin-2-ylmethoxy)phenyl]propanoic acid] | 1e-08 M |  |  |  |  | 0.075 µM
8 | Cc1c(-c2c(-c3ccco3)sc3ncnc(OC(Cc4ccccc4OC4CCN(C)C4)C(=O)O)c23)ccc(OCCN2CCN(C)CC2)c1Cl [Example 214, (2R)-2-{[(5Sa)-5-{3-chloro-2-methyl-4-[2-(4-methylpiperazin-1-yl)ethoxy]phenyl}-6-(furan-2-yl)thieno[2,3-d]pyrimidin-4-yl]oxy}-3-{2-[(1-methylpyrrolidin-3-yl)oxy]phenyl}propanoic acid] | 9.3e-09 M |  |  |  |  | 0.897 µM
9 | Cc1c(-c2c(-c3ccc(F)o3)sc3ncnc(OC(Cc4ccccc4OCCN(C)C)C(=O)O)c23)ccc(OCCN2CCN(C)CC2)c1Cl [Example 192, (2R)-2-{[(5Sa)-5-{3-chloro-2-methyl-4-[2-(4-methylpiperazin-1-yl)ethoxy]phenyl}-6-(5-fluorofuran-2-yl)thieno[2,3-d]pyrimidin-4-yl]oxy}-3-{2-[2-(dimethylamino)ethoxy]phenyl}propanoic acid] | 7.7e-09 M |  |  |  |  | 0.848 µM
10 | Cc1c(-c2c(-c3ccco3)sc3ncnc(OC(Cc4ccccc4OCc4cnn(C)c4)C(=O)O)c23)ccc(OCCN2CCN(C)CC2)c1Cl [Example 279, (2R)-2-{[(5Sa)-5-{3-chloro-2-methyl-4-[2-(4-methylpiperazin-1-yl)ethoxy]phenyl}-6-(furan-2-yl)thieno[2,3-d]pyrimidin-4-yl]oxy}-3-{2-[(1-methyl-1H-pyrazol-4-yl)methoxy]phenyl}propanoic acid] | 8e-09 M |  |  |  |  | 0.406 µM

Now from value to molecule, other results behind:

Row | IC50 (Mcl-1 protein; [3]) | IC50 (Mcl-1 protein; [4]) | IC50 (Mcl-1 protein; fluorescence polarisation test, Method 1, or Method 2 where the value is underlined (underlining not visible)) | percentage fluorescence polarisation inhibition, Mcl-1 FP (Mcl-1 protein) | Structure (SMILES) | PARP fold [1] | IC50 [2]
11 |  | 9.48e-10 M |  |  | COc1ccccc1-c1nccc(COc2ccccc2CC(Oc2ncnc3sc(C#CCCc4ccccc4)c(-c4ccc(OCCN5CCN(C)CC5)c(Cl)c4C)c23)C(=O)O)n1 [Example 781, (2R)-2-{[(5Sa)-5-{3-chloro-2-methyl-4-[2-(4-methylpiperazin-1-yl)ethoxy]phenyl}-6-(4-phenylbut-1-yn-1-yl)thieno[2,3-d]pyrimidin-4-yl]oxy}-3-(2-{[2-(2-methoxyphenyl)pyrimidin-4-yl]methoxy}phenyl)propanoic acid] | 113.3 fold | 0.033 µM
12 |  | 6.89e-07 M |  |  | CCOC(=O)C(Cc1ccccc1OCc1ccnc(-c2ccccc2OC)n1)Oc1ncnc2sc(-c3ccc(F)cc3)c(-c3ccc(OCCN(C)C)c(Cl)c3C)c12 [Example 756, Ethyl (2R)-2-{[(5Sa)-5-{3-chloro-4-[2-(dimethylamino)ethoxy]-2-methylphenyl}-6-(4-fluorophenyl)thieno[2,3-d]pyrimidin-4-yl]oxy}-3-(2-{[2-(2-methoxyphenyl)pyrimidin-4-yl]methoxy}phenyl)propanoate] | 117 fold | 
13 |  | 1.91e-06 M |  |  | CCOC(=O)C(Cc1ccccc1OCc1ccnc(-c2ccccc2F)n1)Oc1ncnc2sc(-c3ccc(F)cc3)c(-c3ccc(OCCN4CCN(CC)CC4)c(Cl)c3C)c12 [Example 790, ethyl (2R)-2-{[(5Sa)-5-{3-chloro-4-[2-(4-ethylpiperazin-1-yl)ethoxy]-2-methylphenyl}-6-(4-fluorophenyl)thieno[2,3-d]pyrimidin-4-yl]oxy}-3-(2-{[2-(2-fluorophenyl)pyrimidin-4-yl]methoxy}phenyl)propanoate] | 282.9 fold | 
14 |  |  | 5.35e-06 M |  | CCOC(=O)C(Cc1ccccc1OCc1ccnn1C(C)(C)C)Oc1ncnc2sc(-c3ccc(F)cc3)c(-c3ccc(OCCN(C)C)c(Cl)c3C)c12 [Example 794, ethyl (2R)-3-{2-[(1-tert-butyl-1H-pyrazol-5-yl)methoxy]phenyl}-2-{[(5Sa)-5-{3-chloro-4-[2-(dimethylamino)ethoxy]-2-methylphenyl}-6-(4-fluorophenyl)thieno[2,3-d]pyrimidin-4-yl]oxy}propanoate] | 125.6 fold | 
15 |  |  |  | 66.25% @ 10 uM | CCOC(=O)[C@@H](Cc1ccccc1OCc1ccnc(-c2ccccc2OC)n1)Oc1ncnc2sc(-c3ccc(F)cc3)c(-c3ccc(OCCN4CCN(C)CC4)c(Cl)c3C)c12 [Example 639, ethyl (2R)-2-{[(5Sa)-5-{3-chloro-2-methyl-4-[2-(4-methylpiperazin-1-yl)ethoxy]phenyl}-6-(4-fluorophenyl)thieno[2,3-d]pyrimidin-4-yl]oxy}-3-(2-{[2-(2-methoxyphenyl)pyrimidin-4-yl]methoxy}phenyl)propanoate] | 195.7 fold | 
16 |  |  |  | 34.5% @ 10 uM | CCOC(=O)[C@@H](Cc1ccccc1OCc1ccnc(OCC(F)(F)F)n1)Oc1ncnc2sc(-c3ccc(F)cc3)c(-c3ccc(OCCN4CCN(C)CC4)c(Cl)c3C)c12 [Example 638, ethyl (2R)-2-{[(5Sa)-5-{3-chloro-2-methyl-4-[2-(4-methylpiperazin-1-yl)ethoxy]phenyl}-6-(4-fluorophenyl)thieno[2,3-d]pyrimidin-4-yl]oxy}-3-(2-{[2-(2,2,2-trifluoroethoxy)pyrimidin-4-yl]methoxy}phenyl)propanoate] | 136.7 fold | 
